Data: PubChem BioAssay (NCI)
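1) Cells in 96-well plates. 2) Compound, 48 h, 5 concentrations. 3) Linear interpolation between surrounding doses. 4) Unreached endpoint = highest concentration. GI50 marks 50% less growth. TGI is the concentration that stops growth completely.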

Assays:
Assay in all cases: growth of human tumour cells (NCI), 48 h
UO-31 renal = system: UO-31 renal
SF-268 CNS = system: SF-268 CNS
HCT-116 colon = system: HCT-116 colon
SK-MEL-5 melanoma = system: SK-MEL-5 melanoma
HL-60(TB) leukemia = system: HL-60(TB) leukemia
A498 renal = system: A498 renal
OVCAR-5 ovarian = system: OVCAR-5 ovarian
MDA-MB-231 breast = system: MDA-MB-231 breast
NCI-H23 lung = system: NCI-H23 lung
SR leukemia = system: SR leukemia

Structure (SMILES) | TGI (UO-31 renal) [µM] | TGI (SF-268 CNS) [µM] | TGI (HCT-116 colon) [µM] | TGI (SK-MEL-5 melanoma) [µM] | TGI (HL-60(TB) leukemia) [µM] | TGI (A498 renal) [µM] | TGI (OVCAR-5 ovarian) [µM] | TGI (MDA-MB-231 breast) [µM] | TGI (NCI-H23 lung) [µM] | TGI (SR leukemia) [µM] | GI50 (UO-31 renal) [µM] | GI50 (SF-268 CNS) [µM] | GI50 (HCT-116 colon) [µM] | GI50 (SK-MEL-5 melanoma) [µM] | GI50 (HL-60(TB) leukemia) [µM] | GI50 (A498 renal) [µM] | GI50 (OVCAR-5 ovarian) [µM] | GI50 (MDA-MB-231 breast) [µM] | GI50 (NCI-H23 lung) [µM] | GI50 (SR leukemia) [µM]
O=C(O)c1cc(=O)[nH]c(SCc2ccccc2)n1 | > 100 | > 100 | > 100 | > 100 | > 100 | > 100 | > 100 | > 100 | > 100 | > 100 |  |  |  |  |  |  |  |  |  | 
C=CCc1cc(-c2cc(CC=C)c(O)c(CNC)c2)cc(CNC)c1O | 25.8 | 33.3 | 28.1 | 29.7 | 35.2 | 34.6 |  |  | 29.6 |  |  |  |  |  |  |  |  |  |  | 
CSc1nc(NC2OCC(OC(C)=O)C(OC(C)=O)C2OC(C)=O)c(N=C(C)C(C)=O)c(=O)[nH]1 (stereo not drawn) |  | > 100 | > 100 | > 100 | > 100 | > 100 | > 100 |  | > 100 | > 100 |  |  |  |  |  |  |  |  |  | 
O=Cc1cc([N+](=O)[O-])no1 | > 100 |  | 33.7 | 36.6 | > 100 | > 100 | > 100 | 64.3 | > 100 | > 100 |  |  |  |  |  |  |  |  |  | 
O=C(C[C@H](NC(=O)OCc1ccccc1)C(=O)NC1Cc2ccccc2OC1=O)OCc1ccccc1 (stereo partly drawn) | > 100 |  | 76.3 | > 100 |  | > 100 | > 100 | 71.6 | > 100 | > 100 |  |  |  |  |  |  |  |  |  | 
Cc1nc2c(n1C)C(=O)c1nc(CBr)[nH]c(=O)c1C2=O | > 100 | > 100 | > 100 | 39 | > 100 | > 100 |  |  | > 100 |  |  |  |  |  |  |  |  |  |  | 
CCCCCCCCCCCCCCCc1ccc(OCC(O)CO)cc1 (stereo not drawn) | > 100 | 82.4 | 31.3 | > 100 | 85 | > 100 | > 100 |  | 35.2 | > 100 |  |  |  |  |  |  |  |  |  | 
CN(C)c1nc(N(C)C)nc(N(C)CN(C)c2ccc(Cl)cc2)n1 | > 100 | > 100 | > 100 | > 100 | > 100 |  |  |  | > 100 |  |  |  |  |  |  |  |  |  |  | 
CS(=O)(=O)OC1CN2CCC1CC2 (stereo not drawn) | > 100 | > 100 | > 100 | > 100 | > 100 | > 100 | > 100 | > 100 | > 100 | > 100 |  |  |  |  |  |  |  |  |  | 
CCN(CC)CCCC(C)Nc1ccnc2cc3ccccc3cc12 (stereo not drawn) | 53.9 | 22.1 | > 100 | 37.1 | 75.9 | 39.9 | > 100 | > 100 | 96.7 | > 100 |  |  |  |  |  |  |  |  |  | 
COc1ccc(C2CC(c3cccc(Nc4ccncc4)c3)=NN2c2ccc(Cl)cc2)cc1 (stereo not drawn) | 2.51 | 3.43 | 3.36 | 3.18 | 4.06 | 8.16 | 3.68 | 2.65 | 3.43 | 3.38 | 1.2 | 1.72 | 1.65 | 1.77 | 1.91 | 1.52 | 1.76 | 1.33 | 1.81 | 1.35
CCN1C=C/C(=C\C=C/c2cc[n+](CC)c3ccccc23)c2ccccc21 | 35.6 | 19.6 | 13.4 | 21.2 | 15.1 | 8.78 | 15.1 | 9.32 | 11.7 | 9.65 |  |  |  |  |  |  |  |  |  | 
CC(C)CCC[C@@H](C)[C@H]1CC[C@H]2[C@@H]3CC[C@H]4C[C@H](N)CC[C@]4(C)[C@H]3CC[C@]12C | 30.3 | > 100 | > 100 | 54.3 | 68.6 | 57.5 | 36.7 | 8.22 | > 100 |  |  |  |  |  |  |  |  |  |  | 
Nc1cc2c(nnn2C2OC(COCc3ccccc3)C(OCc3ccccc3)C2OCc2ccccc2)c(=O)[nH]1 (stereo not drawn) | > 100 | > 100 | 46.9 | 19.9 | 28.1 | > 100 | > 100 | > 100 | > 100 | 35.6 |  |  |  |  |  |  |  |  |  | 
c1ccc(C2CC(c3cccc(Nc4ccncc4)c3)=NN2c2ccccc2)cc1 (stereo not drawn) | 2.8 | 3.65 | 3.25 | 3.22 | 3.73 | 3.03 | 3.65 | 3 | 3.35 |  | 1.48 | 1.79 | 1.66 | 1.77 | 1.65 | 1.42 | 1.83 | 1.61 | 1.73 | 
CC(C)(C)OC(=O)NCC(=O)NC1c2ccsc2/C(=N/O)[C@H]1O (stereo partly drawn) | > 100 |  | > 100 | > 100 | > 100 | > 100 | > 100 | > 100 | > 100 | > 100 |  |  |  |  |  |  |  |  |  | 
CCCCCCNC(=O)c1cc(CCc2cc(O)ccc2O)ccc1O | 2.98 | 9.9 | 13.6 | 15.6 | 4.11 | 15.4 | 19.3 | 5.8 | 28.5 | > 29 |  |  | 3.59 |  |  |  |  |  |  | 
COc1ccc2c(c1)CCN=C2Cc1cc(OC)c(OC)cc1CCCl | > 100 | > 100 | > 100 | 58.9 |  |  | > 100 | > 100 | > 100 | > 100 |  |  |  |  |  |  |  |  |  | 
Cc1ccc(NP(=O)(Oc2ccccc2)N(CCCl)CCCl)cc1 (stereo not drawn) | > 100 | > 100 | > 100 | > 100 | > 100 | > 100 | > 100 |  | > 100 | > 100 |  |  |  |  |  |  |  |  |  | 
CN(c1cc2ncc(=O)[nH]c2cc1NC(N)=NCc1ccc(Cl)cc1)C1CCCCC1 | 15.8 | 14.7 | 12.3 | 15.3 | 12.7 | 15.4 | 14.1 | 9.04 | 15.9 | 5.23 | 8.21 | 6.89 | 5.44 | 8.18 | 5.36 | 8.04 | 6.58 | 2.46 | 8.25 | 1.49
CC(=O)Oc1c(C)c2c(O)c3c1C1=C(OCOC1=C(C)C3=O)/C(C)=C\C(C)(O)C(O)C(C)C(O)C1C(=O)OC(C(C)C1O)C(C)(O)/C=C/C=C(C)C(=O)N2 (stereo not drawn) | 46.5 | > 100 | > 100 | > 100 | 7.3 | > 100 | 88.5 | > 100 | > 100 | 83.3 |  |  |  |  |  |  |  |  |  | 
